The subject of this test is BDF1 mice, P1081 chloroleukemia ip, survival T/C. Kind of test: NCI In Vivo Anticancer Drug Screen. Data for tumor model P1081 Chloroleukemia (intraperitoneal) in B6D2F1 (BDF1) mice. The settings on record: endpoint: mean survival time, higher = longer survival. The method, then:
The antitumor activity of compounds was measured in mice bearing transplantable tumors. Survival or tumor size were measured and the results are expressed as the measurement made in the treated group (T) divided by the measurement made in the vehicle treated control group (C). The tumor model used in this assay is P1081 Chloroleukemia (intraperitoneal) in B6D2F1 (BDF1) mice

Where [1] appears, read: dose: 6.25 mg/kg/injection, schedule: Q01DX010 (ip), vehicle: saline.
Where [2] appears, read: dose: 12.5 mg/kg/injection, schedule: Q01DX010 (ip), vehicle: saline.
Setting [3] is: dose: 25.0 mg/kg/injection, schedule: Q01DX010 (ip), vehicle: saline.
The mark [4] stands for this setting: dose: 50.0 mg/kg/injection, schedule: Q01DX010 (ip), vehicle: saline.
Setting [5] is: dose: 100.0 mg/kg/injection, schedule: Q01DX010 (ip), vehicle: saline.
The mark [6] stands for this setting: dose: 200.0 mg/kg/injection, schedule: Q01DX010 (ip), vehicle: saline.

Structures are written as SMILES. Several values for one entry are separate records, joined by “and”; a condition that tells them apart may be missing. Equal values may be shown once. Inconclusive results and toxic doses are left out.

As to `O=[n+]1c2c(n([O-])c3ccccc31)-c1cccc3cccc-2c13`, the T/C is 100 % of control under setting [1]; 100 % of control under setting [2]; 88 % of control and 90 % of control under setting [3]; 88 % of control and 90 % of control under setting [4].
As to `Nc1c(I)cc(I)cc1C(=O)O`, the T/C under setting [3] is 100 % of control; the T/C under setting [4] is 110 % of control and 88 % of control; the T/C under setting [5] was 100 % of control and 105 % of control; the T/C under setting [6] was 111 % of control and 105 % of control.
Take `COS(C)(=O)=O`: the T/C (dose: 1.6 mg/kg/injection, schedule: Q01DX Z (ip), vehicle: water) is 94 % of control; the T/C (dose: 3.1 mg/kg/injection, schedule: Q01DX Z (ip), vehicle: water) was 99 % of control; the T/C (dose: 6.25 mg/kg/injection, schedule: Q01DX Z (ip), vehicle: water) is 120 % of control and 103 % of control; the T/C (dose: 12.5 mg/kg/injection, schedule: Q01DX Z (ip), vehicle: water) was 109 % of control; the T/C under setting [3] is 95 % of control; the T/C (dose: 25.0 mg/kg/injection, schedule: Q01DX Z (ip), vehicle: water) is 112 % of control and 98 % of control. The T/C was 115 % of control under setting [4]; 90 % of control (dose: 50.0 mg/kg/injection, schedule: Q01DX Z (ip), vehicle: water); 91 % of control (dose: 100.0 mg/kg/injection, schedule: Q01DX Z (ip), vehicle: water).
Take `CS(=O)(=O)OCCCCOS(C)(=O)=O`: the T/C (dose: 0.78 mg/kg/injection, schedule: Q01DX Z (ip), vehicle: methylcellulose (MC)) is 89 % of control; the T/C under setting [1] is 110 % of control; the T/C under setting [2] was 86 % of control and 100 % of control; the T/C under setting [3] was 86 % of control and 100 % of control; the T/C (dose: 25.0 mg/kg/injection, schedule: Q01DX Z (ip), vehicle: methylcellulose (MC)) is 95 % of control; the T/C under setting [4] is 90 % of control and 100 % of control. Moreover, where the note is “dose: 50.0 mg/kg/injection, schedule: Q01DX Z (ip), vehicle: methylcellulose (MC)”, the T/C is 92 % of control.
As for `CCOC(N)=O`, the T/C is, setting by setting: (dose: 125.0 mg/kg/injection, schedule: Q01DX010 (ip), vehicle: saline) 110 % of control and 100 % of control; (dose: 125.0 mg/kg/injection, schedule: Q01DX Z (ip), vehicle: saline) 95 % of control and 102 % of control; (dose: 250.0 mg/kg/injection, schedule: Q01DX010 (ip), vehicle: saline) 90 % of control and 100 % of control; (dose: 250.0 mg/kg/injection, schedule: Q01DX Z (ip), vehicle: saline) 100 % of control and 101 % of control; (dose: 500.0 mg/kg/injection, schedule: Q01DX010 (ip), vehicle: saline) 90 % of control and 100 % of control; (dose: 500.0 mg/kg/injection, schedule: Q01DX Z (ip), vehicle: saline) 92 % of control.
With `[I][Hg][CH2]C1COC([CH2][Hg][I])CO1` (configuration not stated), the T/C was 110 % of control under setting [1]; 97 % of control (dose: 7.5 mg/kg/injection, schedule: Q01DX Z (ip), vehicle: carboxymethylcellulose (CMC)); 95 % of control under setting [2]; 119 % of control (dose: 15.0 mg/kg/injection, schedule: Q01DX Z (ip), vehicle: carboxymethylcellulose (CMC)); 90 % of control under setting [3]; 88 % of control and 103 % of control (dose: 60.0 mg/kg/injection, schedule: Q01DX Z (ip), vehicle: carboxymethylcellulose (CMC)).
Turning to `CC[C@@H](c1ccc(O)cc1)[C@@H](CC)c1ccc(O)cc1`, the T/C (dose: 62.5 mg/kg/injection, schedule: Q01DX Z (sc), vehicle: steriod suspending solution) is 101 % of control; the T/C (dose: 125.0 mg/kg/injection, schedule: Q01DX Z (sc), vehicle: steriod suspending solution) was 104 % of control; the T/C (dose: 250.0 mg/kg/injection, schedule: Q01DX Z (sc), vehicle: steriod suspending solution) is 108 % of control and 118 % of control and 105 % of control; the T/C (dose: 500.0 mg/kg/injection, schedule: Q01DX Z (sc), vehicle: steriod suspending solution) is 108 % of control and 112 % of control and 103 % of control; the T/C (dose: 1000.0 mg/kg/injection, schedule: Q01DX Z (sc), vehicle: steriod suspending solution) was 102 % of control; the T/C (dose: 2000.0 mg/kg/injection, schedule: Q01DX Z (sc), vehicle: steriod suspending solution) was 100 % of control.
Regarding `CN(C)/N=N/c1nc[nH]c1C(N)=O`, the T/C is 120 % of control under setting [3]; 120 % of control under setting [4]; 160 % of control and 177 % of control under setting [5]; 122 % of control under setting [6].
As for `C1CN1c1nc(N2CC2)nc(N2CC2)n1`, the T/C was 92 % of control (dose: 0.03 mg/kg/injection, schedule: Q01DX Z (ip), vehicle: saline); 107 % of control (dose: 0.06 mg/kg/injection, schedule: Q01DX Z (ip), vehicle: saline); 95 % of control and 100 % of control (dose: 0.13 mg/kg/injection, schedule: Q01DX010 (ip), vehicle: saline); 94 % of control (dose: 0.25 mg/kg/injection, schedule: Q01DX010 (ip), vehicle: saline); 122 % of control and 102 % of control (dose: 0.25 mg/kg/injection, schedule: Q01DX Z (ip), vehicle: saline); 109 % of control (dose: 0.5 mg/kg/injection, schedule: Q01DX010 (ip), vehicle: saline). Besides, the T/C is, setting by setting: (dose: 0.5 mg/kg/injection, schedule: Q01DX Z (ip), vehicle: saline) 121 % of control and 90 % of control; (dose: 1.0 mg/kg/injection, schedule: Q01DX010 (ip), vehicle: saline) 88 % of control; (dose: 1.0 mg/kg/injection, schedule: Q01DX Z (ip), vehicle: saline) 102 % of control; (dose: 24.0 micrograms/kg/injection, schedule: Q01DX Z (ip), vehicle: saline) 89 % of control; (dose: 48.0 micrograms/kg/injection, schedule: Q01DX Z (ip), vehicle: saline) 96 % of control; (dose: 95.0 micrograms/kg/injection, schedule: Q01DX Z (ip), vehicle: saline) 98 % of control. Besides, the T/C (dose: 190.0 micrograms/kg/injection, schedule: Q01DX Z (ip), vehicle: saline) is 89 % of control.
As for `O=C(Nc1ccc(C2=NCCCN2)cc1)c1ccc(C(=O)Nc2ccc(C3=NCCCN3)cc2)cc1`, the T/C by setting is: (dose: 0.5 mg/kg/injection, schedule: Q01DX Z (ip), vehicle: water) 109 % of control and 101 % of control; (dose: 1.0 mg/kg/injection, schedule: Q01DX Z (ip), vehicle: water) 110 % of control and 118 % of control; (dose: 4.0 mg/kg/injection, schedule: Q01DX Z (ip), vehicle: water) 162 % of control.
Regarding `S=c1nc[nH]c2nc[nH]c12`, the T/C (dose: 1.56 mg/kg/injection, schedule: Q01DX Z (ip), vehicle: other) is 108 % of control; the T/C (dose: 3.12 mg/kg/injection, schedule: Q01DX Z (ip), vehicle: other) was 120 % of control; the T/C (dose: 5.0 mg/kg/injection, schedule: Q01DX010 (ip), vehicle: alkali diluted with saline) is 110 % of control and 97 % of control; the T/C (dose: 10.0 mg/kg/injection, schedule: Q01DX010 (ip), vehicle: alkali diluted with saline) is 105 % of control and 92 % of control; the T/C (dose: 20.0 mg/kg/injection, schedule: Q01DX010 (ip), vehicle: alkali diluted with saline) is 106 % of control (2×) and 112 % of control; the T/C (dose: 40.0 mg/kg/injection, schedule: Q01DX010 (ip), vehicle: alkali diluted with saline) is 118 % of control and 90 % of control and 103 % of control. Also, the T/C by setting is: (dose: 80.0 mg/kg/injection, schedule: Q01DX010 (ip), vehicle: alkali diluted with saline) 108 % of control and 116 % of control; (dose: 200.0 mg/kg/injection, schedule: Q01DX Z (ip), vehicle: other) 91 % of control and 100 % of control.
Take `N=C(N)SCc1c2ccccc2c(CSC(=N)N)c2ccccc12`: the T/C reads like this: (dose: 2.5 mg/kg/injection, schedule: Q01DX010 (ip), vehicle: saline) 220 % of control; (dose: 5.0 mg/kg/injection, schedule: Q01DX010 (ip), vehicle: saline) 183 % of control and 210 % of control; (dose: 10.0 mg/kg/injection, schedule: Q01DX010 (ip), vehicle: saline) 155 % of control and 240 % of control; (dose: 20.0 mg/kg/injection, schedule: Q01DX010 (ip), vehicle: saline) 172 % of control and 200 % of control; (dose: 40.0 mg/kg/injection, schedule: Q01DX010 (ip), vehicle: saline) 122 % of control.
Consider `CN(N=O)C(=O)NC(C=O)C(O)C(O)C(O)CO` (configuration not stated), for which the T/C is 93 % of control (dose: 6.25 mg/kg/injection, schedule: Q01DX Z (ip), vehicle: carboxymethylcellulose (CMC)); 102 % of control (dose: 12.5 mg/kg/injection, schedule: Q01DX Z (ip), vehicle: carboxymethylcellulose (CMC)); 112 % of control (dose: 25.0 mg/kg/injection, schedule: Q01DX Z (ip), vehicle: carboxymethylcellulose (CMC)); 100 % of control (dose: 50.0 mg/kg/injection, schedule: Q01DX Z (ip), vehicle: carboxymethylcellulose (CMC)); 115 % of control (dose: 50.0 mg/kg/injection, schedule: Q01DX Z (ip), vehicle: saline); 107 % of control (dose: 100.0 mg/kg/injection, schedule: Q01DX Z (ip), vehicle: saline). Besides, the T/C (dose: 200.0 mg/kg/injection, schedule: Q01DX Z (ip), vehicle: saline) is 88 % of control.

The values above are taken from PubChem BioAssay AID246 (DTP/NCI, 2004).
